Laboratory results as given in ChEMBL document CHEMBL1201862, “PubChem BioAssay data set” (2004).
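Dose response: 5 concentrations. Exposure: 48 h. Format: 96-well plates. Endpoint: linear interpolation; highest concentration if not reached. At the GI50, growth is halved.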 Activity calls are given as the source filed them. Cut-off read from the data, not from the text of the source: active = GI50 up to about 1.1 µM and inactive = higher. Where a SMILES comes first, the peptide text is derived from it.

Legend:
Experiment in all cases: DTP human tumour cell line panel, 48 h
HCT-15 = tested on: HCT-15
SK-MEL-5 = tested on: SK-MEL-5
U-251 = tested on: U-251
OVCAR-4 = tested on: OVCAR-4
Malme-3M = tested on: Malme-3M
UO-31 = tested on: UO-31
SN12C = tested on: SN12C
MDA-MB-435 = tested on: MDA-MB-435
MDA-N = tested on: MDA-N
SR = tested on: SR
786-0 = tested on: 786-0
OVCAR-5 = tested on: OVCAR-5
SK-MEL-28 = tested on: SK-MEL-28
Hs-578T = tested on: Hs-578T
IGROV-1 = tested on: IGROV-1
ACHN = tested on: ACHN
SF-539 = tested on: SF-539
COLO 205 = tested on: COLO 205
UACC-62 = tested on: UACC-62
NCI-H522 = tested on: NCI-H522

Structure (SMILES)	GI50 (HCT-15) [µM]	GI50 (SK-MEL-5)	GI50 (U-251)	GI50 (OVCAR-4)	GI50 (Malme-3M)	GI50 (UO-31)	GI50 (SN12C)	GI50 (MDA-MB-435)	GI50 (MDA-N)	GI50 (SR)	GI50 (786-0)	GI50 (OVCAR-5)	GI50 (SK-MEL-28)	GI50 (Hs-578T)	GI50 (IGROV-1)	GI50 (ACHN)	GI50 (SF-539)	GI50 (COLO 205)	GI50 (UACC-62)	GI50 (NCI-H522)
O=C1CC(C(OCc2ccccc2)C(OCc2ccccc2)C(OCc2ccccc2)C(COCc2ccccc2)OCc2ccccc2)CC(=O)N1 (stereo not drawn)	> 100	> 100 µM (inactive)	79.8 µM (inactive)	> 100 µM (inactive)	> 100 µM (inactive)	60.1 µM (inactive)	> 100 µM (inactive)	> 100 µM (inactive)	> 100 µM (inactive)	> 100 µM (inactive)	> 100 µM (inactive)	> 100 µM (inactive)	> 100 µM (inactive)	> 100 µM (inactive)	> 100 µM (inactive)	> 100 µM (inactive)	–	–	–	–
CC(C)CC(Nc1c(O)ccc2ccccc12)C(=O)O (stereo not drawn)	36.9	18.3 µM (inactive)	29.8 µM (inactive)	51.4 µM (inactive)	15.2 µM (inactive)	27.6 µM (inactive)	29.3 µM (inactive)	17.3 µM (inactive)	–	28.1 µM (inactive)	59.3 µM (inactive)	80.7 µM (inactive)	45.9 µM (inactive)	21.6 µM (inactive)	32.7 µM (inactive)	22.9 µM (inactive)	16.7 µM (inactive)	> 100 µM (inactive)	23.8 µM (inactive)	26.3 µM (inactive)
O=C(O)C1Cc2ccccc2OC1=O (stereo not drawn)	> 100	> 100 µM (inactive)	> 100 µM (inactive)	–	> 100 µM (inactive)	> 100 µM (inactive)	> 100 µM (inactive)	> 100 µM (inactive)	–	> 100 µM (inactive)	> 100 µM (inactive)	> 100 µM (inactive)	> 100 µM (inactive)	> 100 µM (inactive)	> 100 µM (inactive)	> 100 µM (inactive)	> 100 µM (inactive)	> 100 µM (inactive)	> 100 µM (inactive)	> 100 µM (inactive)
CO/N=C(\C(=O)[N-]n1cn[n+](CC(=O)OC(C)(C)C)c1)c1csc(NC(c2ccccc2)(c2ccccc2)c2ccccc2)n1	> 10	> 10 µM (inactive)	> 10 µM (inactive)	> 10 µM (inactive)	> 10 µM (inactive)	> 10 µM (inactive)	> 10 µM (inactive)	–	> 10 µM (inactive)	> 10 µM (inactive)	> 10 µM (inactive)	> 10 µM (inactive)	> 10 µM (inactive)	> 10 µM (inactive)	> 10 µM (inactive)	> 10 µM (inactive)	> 10 µM (inactive)	> 10 µM (inactive)	–	> 10 µM (inactive)
CNC(=O)CNC(=O)C(NC(=O)CNC(=O)C1CCCN1C(=O)C(C)NC(=O)C(NC(C)=O)C(C)C)C(C)C (stereo not drawn) (Ac-VAPGVG-NHMe; configuration not given here)	> 100	–	> 100 µM (inactive)	> 100 µM (inactive)	> 100 µM (inactive)	> 100 µM (inactive)	> 100 µM (inactive)	> 100 µM (inactive)	> 100 µM (inactive)	> 100 µM (inactive)	> 100 µM (inactive)	> 100 µM (inactive)	> 100 µM (inactive)	–	> 100 µM (inactive)	> 100 µM (inactive)	> 100 µM (inactive)	> 100 µM (inactive)	> 100 µM (inactive)	> 100 µM (inactive)
O=C1Oc2ccccc2C(=O)/C1=C/N1C(=O)CNC1=S	> 100	> 100 µM (inactive)	> 100 µM (inactive)	> 100 µM (inactive)	–	23 µM (inactive)	> 100 µM (inactive)	> 100 µM (inactive)	> 100 µM (inactive)	–	> 100 µM (inactive)	> 100 µM (inactive)	> 100 µM (inactive)	> 100 µM (inactive)	> 100 µM (inactive)	56.8 µM (inactive)	> 100 µM (inactive)	> 100 µM (inactive)	> 100 µM (inactive)	> 100 µM (inactive)
Cc1cc2c(c(S(=O)(=O)c3ccc(Cl)cc3[N+](=O)[O-])c1)NCCC2	70.8	25.9 µM (inactive)	> 100 µM (inactive)	15.3 µM (inactive)	> 100 µM (inactive)	> 100 µM (inactive)	> 100 µM (inactive)	42.9 µM (inactive)	–	12.2 µM (inactive)	> 100 µM (inactive)	> 100 µM (inactive)	> 100 µM (inactive)	> 100 µM (inactive)	> 100 µM (inactive)	18.3 µM (inactive)	> 100 µM (inactive)	> 100 µM (inactive)	8.11 µM (inactive)	18.2 µM (inactive)
O=C1/C(=N\NC(=S)Nc2ccc(Cl)cc2)c2cc([N+](=O)[O-])ccc2N1CN1CCOCC1	3.36	4 µM (inactive)	7.18 µM (inactive)	10 µM (inactive)	6.17 µM (inactive)	3.78 µM (inactive)	4.12 µM (inactive)	6.38 µM (inactive)	–	1.99 µM (inactive)	4.41 µM (inactive)	–	10.9 µM (inactive)	7.03 µM (inactive)	4.19 µM (inactive)	4.73 µM (inactive)	11.3 µM (inactive)	13.2 µM (inactive)	5.31 µM (inactive)	6.79 µM (inactive)
Nc1ncnc2c1ncn2C(=O)NC12CC3CC(CC(C3)C1)C2	> 100	> 100 µM (inactive)	> 100 µM (inactive)	> 100 µM (inactive)	> 100 µM (inactive)	> 100 µM (inactive)	> 100 µM (inactive)	> 100 µM (inactive)	> 100 µM (inactive)	–	> 100 µM (inactive)	> 100 µM (inactive)	> 100 µM (inactive)	> 100 µM (inactive)	–	> 100 µM (inactive)	> 100 µM (inactive)	> 100 µM (inactive)	> 100 µM (inactive)	–
CC12CP(=O)(c3ccccc3)CC1c1ccccc1C2c1ccccc1 (stereo not drawn)	13.7	19.1 µM (inactive)	16.5 µM (inactive)	–	15.6 µM (inactive)	16.7 µM (inactive)	17.9 µM (inactive)	15.2 µM (inactive)	16.6 µM (inactive)	14.3 µM (inactive)	17.3 µM (inactive)	30.9 µM (inactive)	29.4 µM (inactive)	26.3 µM (inactive)	3.44 µM (inactive)	18 µM (inactive)	17.8 µM (inactive)	–	29.2 µM (inactive)	–
COC(=O)C(=O)C(C(=O)C(=O)Nc1ccc([N+](=O)[O-])cc1[N+](=O)[O-])c1nc2ccc(Cl)cc2nc1O (stereo not drawn)	> 100	> 100 µM (inactive)	> 100 µM (inactive)	27.1 µM (inactive)	–	80.4 µM (inactive)	> 100 µM (inactive)	> 100 µM (inactive)	> 100 µM (inactive)	> 100 µM (inactive)	> 100 µM (inactive)	> 100 µM (inactive)	> 100 µM (inactive)	25.1 µM (inactive)	–	> 100 µM (inactive)	> 100 µM (inactive)	> 100 µM (inactive)	> 100 µM (inactive)	–
COc1ccc(/C=N/Nc2nnc3c(n2)c2ccccc2c2nn(-c4ccccc4Cl)nc23)cc1	> 100	> 100 µM (inactive)	> 100 µM (inactive)	> 100 µM (inactive)	> 100 µM (inactive)	> 100 µM (inactive)	> 100 µM (inactive)	> 100 µM (inactive)	> 100 µM (inactive)	–	> 100 µM (inactive)	> 100 µM (inactive)	> 100 µM (inactive)	71.6 µM (inactive)	> 100 µM (inactive)	> 100 µM (inactive)	–	> 100 µM (inactive)	> 100 µM (inactive)	> 100 µM (inactive)
Oc1ccc(CCNCc2cc3c(cc2Br)OCO3)cc1	> 100	27.1 µM (inactive)	77.8 µM (inactive)	–	62.8 µM (inactive)	55.7 µM (inactive)	66.8 µM (inactive)	–	68.2 µM (inactive)	32.4 µM (inactive)	71 µM (inactive)	> 100 µM (inactive)	37.2 µM (inactive)	> 100 µM (inactive)	> 100 µM (inactive)	95.5 µM (inactive)	4.17 µM (inactive)	18.8 µM (inactive)	52.7 µM (inactive)	39.4 µM (inactive)
N=c1oc2ccc3ccccc3c2cc1C(N)=O	58.1	46.1 µM (inactive)	94.6 µM (inactive)	58.6 µM (inactive)	–	–	39.8 µM (inactive)	53.6 µM (inactive)	37.1 µM (inactive)	34 µM (inactive)	34 µM (inactive)	> 100 µM (inactive)	44.5 µM (inactive)	15.6 µM (inactive)	21.6 µM (inactive)	24.9 µM (inactive)	–	48.6 µM (inactive)	28 µM (inactive)	–
C(=N\N=C1NCCCN1)/c1ccc2ccccc2c1	13.7	3.47 µM (inactive)	6.53 µM (inactive)	19.3 µM (inactive)	18.2 µM (inactive)	11.6 µM (inactive)	12.4 µM (inactive)	5.89 µM (inactive)	8.97 µM (inactive)	–	11.7 µM (inactive)	8.69 µM (inactive)	15.9 µM (inactive)	16.9 µM (inactive)	11.7 µM (inactive)	10.5 µM (inactive)	16.8 µM (inactive)	5.93 µM (inactive)	13.5 µM (inactive)	15.1 µM (inactive)
CCCC/C=C/C/C=C/CCCCCCCCC(=O)OCC1CCCN2CCCCC12 (stereo not drawn)	> 100	> 100 µM (inactive)	> 100 µM (inactive)	79.8 µM (inactive)	87.5 µM (inactive)	59.4 µM (inactive)	> 100 µM (inactive)	> 100 µM (inactive)	> 100 µM (inactive)	–	> 100 µM (inactive)	> 100 µM (inactive)	> 100 µM (inactive)	> 100 µM (inactive)	–	> 100 µM (inactive)	> 100 µM (inactive)	93.3 µM (inactive)	48.6 µM (inactive)	–
